Bounds are passed on as bounds.

Holding throughout (format): in vivo
In assay [1] the test system is Puccinia recondita f. sp. tritici. Put plainly: Puccinia recondita f. sp. tritici / wheat / leaf disc curative (brown rust). The note with it: foliar, wheat leaf segments cv. Kanzler, compound applied 1 day after inoculation, assessed 6-8 days after application, read-out: control of Puccinia recondita f. sp. tritici (percent disease control compared to untreated). Here is the method: Puccinia recondita f. Sp. Tritici/Wheat/Leaf Disc Curative (Brown Rust) Wheat leaf segments cv. Kanzler are placed on agar in multiwell plates (24-well format). The leaf segments are inoculated with a spore suspension of the fungus. Plates are stored in darkness at 19° C. and 75% rh. The formulated test compound diluted in water is applied 1 day after inoculation. The leaf segments are incubated at 19° C. and 75% rh under a light regime of 12 h light/12 h darkness in a climate cabinet and the activity of a compound is assessed as percent disease control compared to untreated when an appropriate level of disease damage appears in untreated check leaf segments (6-8 days after application).

Assay [2] relates to Blumeria graminis f. sp. tritici (Erysiphe graminis f. sp. tritici). Put plainly: Blumeria graminis f. sp. tritici / wheat / leaf disc preventative (powdery mildew on wheat). The following applies: foliar, wheat leaf segments cv. Kanzler, inoculated 1 day after application, assessed 6-8 days after application, read-out: control of Blumeria graminis f. sp. tritici (percent disease control compared to untreated). As for the experimental part: Blumeria graminis f. sp. tritici (Erysiphe graminis f. sp. tritici)/Wheat/Leaf Disc Preventative (Powdery Mildew on Wheat) Wheat leaf segments cv. Kanzler are placed on agar in a multiwell plate (24-well format) and sprayed with the formulated test compound diluted in water. The leaf disks are inoculated by shaking powdery mildew infected plants above the test plates 1 day after application. The inoculated leaf disks are incubated at 20° C. and 60% rh under a light regime of 24 h darkness followed by 12 h light/12 h darkness in a climate chamber and the activity of a compound is assessed as percent disease control compared to untreated when an appropriate level of disease damage appears on untreated check leaf segments (6-8 days after application).

Assay [3] has as its system Puccinia recondita f. sp. tritici. Put plainly: Puccinia recondita f. sp. tritici / wheat / leaf disc preventative (brown rust). The following applies: foliar, wheat leaf segments cv. Kanzler, inoculated 1 day after application, assessed 7-9 days after application, read-out: control of Puccinia recondita f. sp. tritici (percent disease control compared to untreated). As for the experimental part:
Puccinia recondita f. Sp. Tritici/Wheat/Leaf Disc Preventative (Brown Rust) Wheat leaf segments cv. Kanzler are placed on agar in multiwell plates (24-well format) and sprayed with the formulated test compound diluted in water. The leaf disks are inoculated with a spore suspension of the fungus 1 day after application. The inoculated leaf segments are incubated at 19° C. and 75% rh under a light regime of 12 h light/12 h darkness in a climate cabinet and the activity of a compound is assessed as percent disease control compared to untreated when an appropriate level of disease damage appears in untreated check leaf segments (7-9 days after application).

As to `CCCC1OCC(C)(COCC(O)(c2cc(C)c(/N=C/N(C)CC)cc2OC)C(F)(F)F)CO1` (stereo not drawn) [E.001, N-ethyl-N′-[5-methoxy-2-methyl-4-[2,2,2-trifluoro-1-hydroxy-1-[(5-methyl-2-propyl-1,3-dioxan-5-yl)methoxymethyl]ethyl]phenyl]-N-methyl-formamidine], the pest or weed control at 200 ppm in assay [1], in assay [2] and in assay [3] was at least 80% each time.
On to `CCN(C)/C=N/c1cc(OC)c(C(O)(COC2CCc3ccccc32)C(F)(F)F)cc1C` (stereo not drawn) [E.005, N-ethyl-N′-[5-methoxy-2-methyl-4-[2,2,2-trifluoro-1-hydroxy-1-(indan-1-yloxymethyl)ethyl]phenyl]-N-methyl-formamidine], for which the pest or weed control at 200 ppm in assay [1], in assay [2] and in assay [3] was at least 80% each time.
For the molecule `CCN(C)/C=N/c1cc(OC)c(C(O)(COCC2(c3ccc(Cl)cc3)CC2)C(F)(F)F)cc1C` (stereo not drawn) [E.007, N′-[4-[1-[[1-(4-chlorophenyl)cyclopropyl]methoxymethyl]-2,2,2-triﬂuoro-1-hydroxy-ethyl]-5-methoxy-2-methyl-phenyl]-N-ethyl-N-methyl-formamidine], the pest or weed control at 200 ppm in assay [1], in assay [2] and in assay [3] was at least 80% each time.
Regarding `CCN(C)/C=N/c1cc(OC)c(C(O)(COCC(C)(C)C)C(F)(F)F)cc1C` (stereo not drawn) [E.008, N′-[4-[1-(2,2-dimethylpropoxymethyl)-2,2,2-trifluoro-1-hydroxy-ethyl]-5-methoxy-2-methyl-phenyl]-N-ethyl-N-methyl-formamidine], the pest or weed control at 200 ppm in assay [1], in assay [2] and in assay [3] was at least 80% each time.
As for `CCN(C)/C=N/c1cc(OC)c(C(O)(COCc2ccc3ccccc3c2)C(F)(F)F)cc1C` (stereo not drawn) [E.009, N-ethyl-N′-[5-methoxy-2-methyl-4-[2,2,2-trifluoro-1-hydroxy-1-(2-naphthylmethoxymethyl)ethyl]phenyl]-N-methyl-formamidine], the pest or weed control at 200 ppm in assay [1], in assay [2] and in assay [3] was at least 80% throughout.
Turning to `CCN(C)/C=N/c1cc(OC)c(C(O)(COC2Cc3ccccc3C2)C(F)(F)F)cc1C` (stereo not drawn) [E.010, N-ethyl-N′-[5-methoxy-2-methyl-4-[2,2,2-trifluoro-1-hydroxy-1-(indan-2-yloxymethyl)ethyl]phenyl]-N-methyl-formamidine], the pest or weed control at 200 ppm in assay [1], in assay [2] and in assay [3] was at least 80% throughout.
As for `CCN(C)/C=N/c1cc(OC)c(C(O)(COCCOC)C(F)(F)F)cc1C` (stereo not drawn) [E.012, N-ethyl-N′-[5-methoxy-2-methyl-4-[2,2,2-trifluoro-1-hydroxy-1-(2-methoxyethoxymethyl)ethyl]phenyl]-N-methyl-formamidine], the pest or weed control at 200 ppm in assay [1], in assay [2] and in assay [3] was at least 80% throughout.
As for `CCN(C)/C=N/c1cc(OC)c(C(O)(COCC(C)(C)COC(C)(C)C)C(F)(F)F)cc1C` (stereo not drawn) [E.015, N′-[4-[1-[(3-tert-butoxy-2,2-dimethyl-propoxy)methyl]-2,2,2-trifluoro-1-hydroxy-ethyl]-5-methoxy-2-methyl-phenyl]-N-ethyl-N-methyl-formamidine], the pest or weed control at 200 ppm in assay [1], in assay [2] and in assay [3] was at least 80% each time.
As for `CCN(C)/C=N/c1cc(OC)c(C(O)(COCCON=C(C)C)C(F)(F)F)cc1C` (stereo not drawn) [E.016, N-ethyl-N′-[5-methoxy-2-methyl-4-[2,2,2-trifluoro-1-hydroxy-1-[2-(isopropylideneamino)oxyethoxymethyl]ethyl]phenyl]-N-methyl-formamidine], the pest or weed control at 200 ppm in assay [1], in assay [2] and in assay [3] was at least 80% throughout.
Take `CCC1OCC(C)(COCC(O)(c2cc(C)c(/N=C/N(C)CC)cc2OC)C(F)(F)F)CO1` (stereo not drawn) [E.017, N-ethyl-N′-[4-[1-[(2-ethyl-5-methyl-1,3-dioxan-5-yl)methoxymethyl]-2,2,2-trifluoro-1-hydroxy-ethyl]-5-methoxy-2-methyl-phenyl]-N-methyl-formamidine]: the pest or weed control at 200 ppm in assay [1], in assay [2] and in assay [3] was at least 80% in each case.
For the molecule `CCN(C)/C=N/c1cc(OC)c(C(O)(COCC2(C)COC2)C(F)(F)F)cc1C` (stereo not drawn) [E.018, N-ethyl-N′-[5-methoxy-2-methyl-4-[2,2,2-trifluoro-1-hydroxy-1-[(3-methyloxetan-3-yl)methoxymethyl]ethyl]phenyl]-N-methyl-formamidine], the pest or weed control at 200 ppm in assay [1], in assay [2] and in assay [3] was at least 80% each time.
Consider `CCN(C)/C=N/c1cc(OC)c(C(O)(COCCC(C)(C)OC)C(F)(F)F)cc1C` (stereo not drawn) [E.019, N-ethyl-N′-[5-methoxy-2-methyl-4-[2,2,2-trifluoro-1-hydroxy-1-[(3-methoxy-3-methyl-butoxy)methyl]ethyl]phenyl]-N-methyl-formamidine], for which the pest or weed control at 200 ppm in assay [1], in assay [2] and in assay [3] was at least 80% throughout.
Take `CCN(C)/C=N/c1cc(OC)c(C(O)(COCCc2ccc(OC)c(OC)c2)C(F)(F)F)cc1C` (stereo not drawn) [E.022, N′-[4-[1-[2-(3,4-dimethoxyphenyl)ethoxymethyl]-2,2,2-trifluoro-1-hydroxy-ethyl]-5-methoxy-2-methyl-phenyl]-N-ethyl-N-methyl-formamidine]: the pest or weed control at 200 ppm in assay [1] and in assay [2] was at least 80% throughout.
As to `CCCSCC(O)(c1cc(C)c(/N=C/N(C)CC)cc1OC)C(F)(F)F` (stereo not drawn) [E.062, N-ethyl-N′-[5-methoxy-2-methyl-4-[2,2,2-trifluoro-1-hydroxy-1-(propylsulfanylmethyl)ethyl]phenyl]-N-methyl-formamidine], the pest or weed control at 200 ppm in assay [1] and in assay [2] was at least 80% in each case.
Take `CCN(C)/C=N/c1cc(OC)c(C(O)(CSC)C(F)(F)F)cc1C` (stereo not drawn) [E.070, N-ethyl-N′-[5-methoxy-2-methyl-4-[2,2,2-trifluoro-1-hydroxy-1-(methylsulfanylmethyl)ethyl]phenyl]-N-methyl-formamidine]: the pest or weed control at 200 ppm in assay [2] and in assay [3] was at least 80% throughout.
On to `CCN(C)/C=N/c1cc(OC)c(C(O)(CSC(C)C)C(F)(F)F)cc1C` (stereo not drawn) [E.071, N-ethyl-N′-[5-methoxy-2-methyl-4-[2,2,2-trifluoro-1-hydroxy-1-(isopropylsulfanylmethyl)ethyl]phenyl]-N-methyl-formamidine], for which the pest or weed control at 200 ppm in assay [2] and in assay [3] was at least 80% each time.
Regarding `CCN(C)/C=N/c1cc(OC)c(C(O)(C2CCS(=O)(=O)CC2)C(F)(F)F)cc1C` (stereo not drawn) [E.076, N′-[4-[1-(1,1-dioxothian-4-yl)-2,2,2-trifluoro-1-hydroxy-ethyl]-5-methoxy-2-methyl-phenyl]-N-ethyl-N-methyl-formamidine], the pest or weed control at 200 ppm in assay [1] is at least 80%.

These data come from patent publication US10925283B2, “Microbiocidal phenylamidine derivatives” (SYNGENTA PARTICIPATIONS AG, priority 2016, dated 2021).
